Measured values taken from ChEMBL document CHEMBL2346567, “Selective aminopeptidase-N (CD13) inhibitors with relevance to cancer chemotherapy” (Bioorg Med Chem, 2013).
Activity calls are given as the source filed them. The rule behind the calls is not given here.

Key:
[1] = tested on: A673; assay: Antiangiogenic activity against human A673 cells xenografted in athymic nude mouse assessed as reduction in microvessel density at 40 mg/kg, ip administered as single dose measured on day 26 relative to control; type: functional, organism-based; set-up: dose 40 mg/kg
[2] = biological target: T1, Stromelysin-3 (Homo sapiens) (UniProt P24347); assay: Inhibition of MMP11 (unknown origin) up to 50 uM
T1 sequence (whole entry): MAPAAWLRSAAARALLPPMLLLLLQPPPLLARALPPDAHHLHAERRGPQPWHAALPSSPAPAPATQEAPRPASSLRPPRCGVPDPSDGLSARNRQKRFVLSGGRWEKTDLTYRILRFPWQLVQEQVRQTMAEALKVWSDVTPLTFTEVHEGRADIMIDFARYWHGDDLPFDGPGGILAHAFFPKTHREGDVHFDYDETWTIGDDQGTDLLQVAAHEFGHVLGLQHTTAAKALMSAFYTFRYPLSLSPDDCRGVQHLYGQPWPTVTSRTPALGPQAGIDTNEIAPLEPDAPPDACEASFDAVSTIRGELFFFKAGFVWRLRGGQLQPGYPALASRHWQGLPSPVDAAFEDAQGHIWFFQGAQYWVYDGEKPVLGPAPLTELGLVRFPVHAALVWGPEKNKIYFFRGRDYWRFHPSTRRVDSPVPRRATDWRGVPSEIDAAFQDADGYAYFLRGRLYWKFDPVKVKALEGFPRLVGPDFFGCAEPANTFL

[3] = tested on: Mus musculus; assay: Toxicity in Swiss nude mouse assessed as transient body weight loss at 100 mg/kg, ip measured up to 2 days relative to control; type: organism-based; set-up: dose 100 mg/kg, route intraperitoneal; settings: in vivo, 48 h
[4] = biological target: T2, Aminopeptidase N (Mus musculus, UniProt P97449); assay: Inhibition of mouse APN using L-leucine-p-nitroanilide as substrate measured every 10 mins for 2 hrs by spectrophotometric analysis
T2 sequence (P97449 whole entry): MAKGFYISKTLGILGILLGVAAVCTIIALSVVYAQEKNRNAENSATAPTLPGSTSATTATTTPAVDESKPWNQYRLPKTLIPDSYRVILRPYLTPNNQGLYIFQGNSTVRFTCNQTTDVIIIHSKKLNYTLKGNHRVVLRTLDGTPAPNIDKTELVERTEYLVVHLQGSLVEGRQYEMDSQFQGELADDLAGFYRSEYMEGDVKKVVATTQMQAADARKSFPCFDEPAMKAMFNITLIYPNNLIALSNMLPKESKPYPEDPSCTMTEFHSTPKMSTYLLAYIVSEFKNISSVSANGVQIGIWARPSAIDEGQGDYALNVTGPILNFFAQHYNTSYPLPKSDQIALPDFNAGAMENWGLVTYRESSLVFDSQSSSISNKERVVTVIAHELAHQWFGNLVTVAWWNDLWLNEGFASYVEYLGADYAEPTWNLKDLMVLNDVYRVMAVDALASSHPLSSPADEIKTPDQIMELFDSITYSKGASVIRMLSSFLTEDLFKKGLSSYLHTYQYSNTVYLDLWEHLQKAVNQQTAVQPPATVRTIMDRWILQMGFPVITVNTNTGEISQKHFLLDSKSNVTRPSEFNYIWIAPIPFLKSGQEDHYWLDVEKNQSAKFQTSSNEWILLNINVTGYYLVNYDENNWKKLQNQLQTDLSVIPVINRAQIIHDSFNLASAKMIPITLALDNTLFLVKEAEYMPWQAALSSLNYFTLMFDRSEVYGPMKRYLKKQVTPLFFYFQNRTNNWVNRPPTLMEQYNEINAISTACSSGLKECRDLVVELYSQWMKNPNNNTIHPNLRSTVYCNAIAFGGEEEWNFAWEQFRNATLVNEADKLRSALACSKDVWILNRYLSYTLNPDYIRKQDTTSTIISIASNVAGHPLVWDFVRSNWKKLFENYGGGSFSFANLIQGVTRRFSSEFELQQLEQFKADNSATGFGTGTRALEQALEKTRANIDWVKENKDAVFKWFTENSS

[5] = biological target: 72 kDa type IV collagenase (Homo sapiens) (UniProt P08253); assay: Inhibition of MMP2 (unknown origin) up to 50 uM
72 kDa type IV collagenase (Homo sapiens), sequence (P08253 110-660 limits assumed): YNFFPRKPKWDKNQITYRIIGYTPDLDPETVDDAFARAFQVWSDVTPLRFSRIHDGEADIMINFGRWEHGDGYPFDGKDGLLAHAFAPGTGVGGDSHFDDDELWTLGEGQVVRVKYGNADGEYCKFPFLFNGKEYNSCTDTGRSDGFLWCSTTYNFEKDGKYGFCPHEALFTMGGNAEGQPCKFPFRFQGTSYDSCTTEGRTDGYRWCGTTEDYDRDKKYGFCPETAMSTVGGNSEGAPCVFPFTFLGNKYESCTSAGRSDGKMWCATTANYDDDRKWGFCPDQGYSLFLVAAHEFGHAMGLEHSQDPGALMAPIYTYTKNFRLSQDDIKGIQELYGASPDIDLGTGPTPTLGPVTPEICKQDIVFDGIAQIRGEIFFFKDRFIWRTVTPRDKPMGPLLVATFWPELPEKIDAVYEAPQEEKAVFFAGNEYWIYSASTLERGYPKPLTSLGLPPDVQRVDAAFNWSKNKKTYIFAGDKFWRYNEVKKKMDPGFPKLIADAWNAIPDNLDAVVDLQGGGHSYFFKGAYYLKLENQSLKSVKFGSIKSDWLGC

[6] = Cytotoxicity against human HUVEC cells assessed as concentration of compound causing 50% cell death after 24 hrs; type: cell-based; settings: read-out: Activity
[7] = biological target: Aminopeptidase N (Homo sapiens, UniProt P15144)
Aminopeptidase N (Homo sapiens, UniProt P15144), sequence (P15144 whole entry): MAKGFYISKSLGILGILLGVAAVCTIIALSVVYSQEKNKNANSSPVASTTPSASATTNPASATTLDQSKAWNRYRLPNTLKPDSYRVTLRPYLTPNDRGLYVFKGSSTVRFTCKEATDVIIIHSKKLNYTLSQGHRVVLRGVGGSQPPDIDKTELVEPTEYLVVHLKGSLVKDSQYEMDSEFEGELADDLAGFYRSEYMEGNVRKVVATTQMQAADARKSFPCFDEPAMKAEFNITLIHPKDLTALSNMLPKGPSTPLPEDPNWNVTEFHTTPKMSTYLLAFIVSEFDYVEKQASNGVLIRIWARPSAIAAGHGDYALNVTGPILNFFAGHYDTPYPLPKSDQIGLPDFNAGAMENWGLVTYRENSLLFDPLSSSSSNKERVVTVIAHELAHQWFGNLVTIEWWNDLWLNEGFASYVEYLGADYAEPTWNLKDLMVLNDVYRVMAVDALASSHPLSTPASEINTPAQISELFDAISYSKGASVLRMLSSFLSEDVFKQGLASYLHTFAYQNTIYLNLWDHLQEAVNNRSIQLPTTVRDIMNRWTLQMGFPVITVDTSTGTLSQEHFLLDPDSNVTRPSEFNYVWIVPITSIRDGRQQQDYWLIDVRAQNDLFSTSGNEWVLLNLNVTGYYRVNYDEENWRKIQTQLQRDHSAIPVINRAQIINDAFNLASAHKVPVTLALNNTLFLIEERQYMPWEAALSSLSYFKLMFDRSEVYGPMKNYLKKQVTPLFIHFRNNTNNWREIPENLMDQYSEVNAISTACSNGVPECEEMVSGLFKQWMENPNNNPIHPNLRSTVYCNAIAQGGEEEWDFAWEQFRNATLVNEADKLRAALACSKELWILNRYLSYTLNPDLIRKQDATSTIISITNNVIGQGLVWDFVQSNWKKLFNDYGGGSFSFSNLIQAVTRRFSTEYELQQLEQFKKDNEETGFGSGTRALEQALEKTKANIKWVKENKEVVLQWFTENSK
Description: Inhibition of human APN using L-leucine-p-nitroanilide as substrate measured every 10 mins for 2 hrs by spectrophotometric analysis

[8] = biological target: Macrophage metalloelastase (Homo sapiens) (UniProt P39900); assay: Inhibition of MMP12 (unknown origin) up to 50 uM
Macrophage metalloelastase (Homo sapiens), sequence (P39900 106-470 limits assumed): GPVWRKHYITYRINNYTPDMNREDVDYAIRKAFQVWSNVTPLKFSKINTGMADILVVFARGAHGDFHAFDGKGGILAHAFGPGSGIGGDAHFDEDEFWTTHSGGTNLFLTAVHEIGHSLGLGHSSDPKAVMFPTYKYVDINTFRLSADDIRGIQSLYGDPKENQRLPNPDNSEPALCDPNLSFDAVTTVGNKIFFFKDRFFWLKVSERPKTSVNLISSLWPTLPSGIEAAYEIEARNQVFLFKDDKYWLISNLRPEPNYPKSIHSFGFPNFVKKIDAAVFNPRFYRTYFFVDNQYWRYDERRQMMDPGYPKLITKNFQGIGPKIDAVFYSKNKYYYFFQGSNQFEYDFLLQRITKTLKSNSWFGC

[9] = Chemical stability of the compound in DMSO solution at 5 mg/ml after 20 days at -20 degC; type: physicochemical; settings: 480 h
[10] = Chemical stability of the compound in DMSO solution at 5 mg/ml after 20 days at 4 degC; type: physicochemical; settings: 480 h
[11] = tested on: Mus musculus; assay: Toxicity in Swiss nude mouse assessed as convulsions at 100 mg/kg, ip administered once every 3 days 4 times measured post second-dose; type: organism-based; set-up: dose 100 mg/kg, route intraperitoneal; settings: in vivo, 72 h
[12] = tested on: Mus musculus; assay: Toxicity in Swiss nude mouse assessed as catalepsy at 70 mg/kg, ip administered once every 3 days 8 times measured post second-dose; type: organism-based; set-up: dose 70 mg/kg, route intraperitoneal; settings: in vivo, 72 h
[13] = tested on: A673; assay: Antitumor activity against human A673 cells xenografted in athymic nude mouse assessed as tumor growth inhibition at 40 mg/kg, ip administered as single dose measured on day 26 relative to control; type: functional; settings: 624 h, route intraperitoneal, read-out: TGI
[14] = biological target: Collagenase 3 (Homo sapiens) (UniProt P45452); assay: Inhibition of MMP13 (unknown origin) up to 50 uM
[15] = tested on: HUVEC; assay: Antimigratory activity against human HUVEC cells after 16 hrs by wound healing assay; type: functional, cell-based
[16] = tested on: HUVEC; assay: Antimigratory activity against human HUVEC cells at 0.1 to 1 uM after 16 hrs by wound healing assay; type: functional, cell-based
[17] = tested on: HUVEC; assay: Antiangiogenic activity against human HUVEC cells assessed as inhibition of capillary tube formation at 1 uM after 24 hrs by phase contrast microscopic analysis; type: functional, cell-based
[18] = tested on: HUVEC; assay: Antimigratory activity against human HUVEC cells assessed as inhibition of VEGF-induced migration at 0.1 uM after 16 hrs by Boyden chamber assay; type: functional
[19] = biological target: Matrix metalloproteinase-9 (Homo sapiens) (UniProt P14780); assay: Inhibition of MMP9 (unknown origin) up to 50 uM
Matrix metalloproteinase-9 (Homo sapiens), sequence (P14780 whole entry): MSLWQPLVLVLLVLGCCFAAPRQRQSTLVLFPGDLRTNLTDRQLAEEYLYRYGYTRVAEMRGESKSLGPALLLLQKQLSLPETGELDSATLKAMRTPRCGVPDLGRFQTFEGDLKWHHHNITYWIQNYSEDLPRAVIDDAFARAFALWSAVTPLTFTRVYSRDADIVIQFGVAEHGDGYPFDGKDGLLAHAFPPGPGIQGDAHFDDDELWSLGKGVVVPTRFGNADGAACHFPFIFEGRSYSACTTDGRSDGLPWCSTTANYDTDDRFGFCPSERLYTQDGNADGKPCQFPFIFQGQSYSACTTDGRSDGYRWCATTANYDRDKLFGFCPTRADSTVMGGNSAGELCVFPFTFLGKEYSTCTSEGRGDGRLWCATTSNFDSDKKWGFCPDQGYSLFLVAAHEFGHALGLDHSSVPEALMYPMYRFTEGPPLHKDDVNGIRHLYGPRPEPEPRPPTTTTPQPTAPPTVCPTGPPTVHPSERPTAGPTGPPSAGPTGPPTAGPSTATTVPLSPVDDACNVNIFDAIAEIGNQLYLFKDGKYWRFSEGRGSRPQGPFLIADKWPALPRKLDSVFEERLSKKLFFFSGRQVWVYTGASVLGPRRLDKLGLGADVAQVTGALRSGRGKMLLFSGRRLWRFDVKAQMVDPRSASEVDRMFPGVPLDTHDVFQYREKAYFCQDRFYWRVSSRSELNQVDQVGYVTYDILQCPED

[20] = tested on: Mus musculus; assay: Toxicity in Swiss nude mouse assessed as adverse effects at 40 mg/kg, ip administered once every 3 days 8 times measured after 29 days; type: organism-based; set-up: dose 40 mg/kg, route intraperitoneal; settings: in vivo, 696 h
[21] = tested on: Caco-2; assay: Antimigratory activity against human Caco2/TC7 cells up to 1 uM after 16 hrs by wound healing assay; type: functional, cell-based
[22] = Chemical stability of the compound in DMSO solution at 5 mg/ml after 20 days at 25 degC; type: physicochemical; settings: 480 h
[23] = tested on: Caco-2; assay: Antimigratory activity against human Caco2/TC7 cells after 16 hrs by wound healing assay; type: functional, cell-based
[24] = tested on: HUVEC; assay: Antiangiogenic activity against human HUVEC cells assessed as inhibition of capillary tube formation at 300 uM after 24 hrs by phase contrast microscopic analysis; type: functional, cell-based
[25] = tested on: HUVEC; assay: Antiangiogenic activity against human HUVEC cells assessed as inhibition of capillary tube formation at 10 uM after 24 hrs by phase contrast microscopic analysis; type: functional, cell-based
[26] = tested on: HUVEC; assay: Antimigratory activity against human HUVEC cells at 0.01 uM after 16 hrs by wound healing assay; type: functional, cell-based
[27] = tested on: A673; assay: Antitumor activity against human A673 cells xenografted in athymic nude mouse assessed as tumor growth inhibition at 30 mg/kg, ip administered as single dose measured on day 26 relative to control; type: functional; settings: 624 h, route intraperitoneal, read-out: TGI
[28] = tested on: HUVEC; assay: Antimigratory activity against human HUVEC cells assessed as inhibition of VEGF-induced migration at 1 uM after 16 hrs by Boyden chamber assay; type: functional
[29] = Antimigratory activity against human Caco2/TC7 cells at 1 uM after 16 hrs by wound healing assay; type: functional, Caco-2
[30] = Antitumor activity against human colon cancer cells expressing high level of APN xenografted in athymic nude mouse at 30 mg/kg, ip administered once every 3 days relative to control; type: functional; settings: Cancer cell lines, 72 h, route intraperitoneal, read-out: TGI
[31] = tested on: A673; assay: Antiangiogenic activity against human A673 cells xenografted in athymic nude mouse assessed as reduction in microvessel density at 30 mg/kg, ip administered as single dose measured on day 26 relative to control; type: functional, organism-based; set-up: dose 30 mg/kg
[32] = Antimigratory activity against human Caco2/TC7 cells at 0.1 uM after 16 hrs by wound healing assay; type: functional, Caco-2
[33] = tested on: HT-29; assay: Antitumor activity against human HT-29 cells expressing low level of APN xenografted in athymic nude mouse at 30 mg/kg, ip administered once every 3 days relative to control; type: functional; settings: HT-29, ip, 72 h, route intraperitoneal, read-out: TGI
[34] = Antitumor activity against human colon cancer cells expressing low level of APN xenografted in athymic nude mouse at 30 mg/kg, ip administered once every 3 days relative to control; type: functional; settings: Cancer cell lines, 72 h, route intraperitoneal, read-out: TGI

In the case of Cl.NC1CCc2cccc(-c3ccccc3)c2CC1=O (stereo unspecified), the Activity [1] is reported as “inactive”, the inhibition [2] is reported as “inactive” and the Activity [3] is reported as “Toxic”. The Ki [4] was 10 nM, the inhibition [5] was “inactive” and the CC50 at 24 h [6] was 20000 nM. The Ki [7] was 11 nM, the inhibition [8] was “inactive” and the Stability [9] was “Stable”. For the same molecule, the Stability [10] was “Stable”, the Activity [11] was “Toxic” and the Activity [12] was “Toxic”. For the same molecule, the inhibition in vivo at 40 mg/kg [13] was 18%, the inhibition [14] was “inactive” and the Activity [15] was “Dose-dependent effect”. The Activity [16] was “Active”, the inhibition [17] was “Active” and the inhibition at 0.1 µM [18] was 70%. The inhibition [19] was “inactive”, the Activity [20] was “Non-toxic” and the Activity [21] was “inactive”. The Stability [22] was “Stable” and the Activity [23] was “Dose-dependent effect”.
For CC(C)C[C@H](NC(=O)[C@@H](O)[C@H](N)Cc1ccccc1)C(=O)O, the inhibition [24] was “Active”.
In the case of NC1CCc2ccccc2CC1=O (stereo unspecified), the inhibition [2] is reported as “inactive”, the inhibition [5] is reported as “inactive” and the inhibition [25] is reported as “Active”. For the same molecule, the CC50 at 24 h [6] was 100000 nM, the Ki [7] was 2000 nM and the inhibition [8] was “inactive”. The inhibition [14] was “inactive” and the inhibition [19] was “inactive”.
With NC1CCc2c(Br)ccc(-c3ccccc3)c2CC1=O (stereo unspecified) the Activity [26] was “Active”, the inhibition [2] was “inactive” and the inhibition in vivo at 30 mg/kg [27] was 44%. The inhibition at 1 µM [28] was 70%, the Ki [4] was 0.2 nM and the Activity [29] was 40%. For the same molecule, the inhibition [5] was “inactive”, the inhibition in vivo at 30 mg/kg [30] was 26% and the Activity [31] was “Active”. The CC50 at 24 h [6] was 10000 nM, the inhibition [8] was “inactive” and the Activity [32] was 30%. For the same molecule, the Stability [9] was “Stable”, the Stability [10] was “Stable” and the inhibition in vivo at 30 mg/kg [33] was 15%. The inhibition in vivo at 30 mg/kg [34] was 8%, the inhibition [14] was “inactive” and the Activity [15] was “Dose-dependent effect”. For the same molecule, the Activity [16] was “Active”, the inhibition [17] was “Active” and the inhibition [19] was “inactive”. For the same molecule, the Activity [20] was “Non-toxic”, the Stability [22] was “Stable” and the Activity [23] was “Dose-dependent effect”.
